Measurements from patent publication US20240018122A1, “PYRIDAZINYL AMINO DERIVATIVES AS ALK5 INHIBITORS” (CHIESI FARMACEUTICI S.P.A., priority 2020, published 2024).

Each molecule was assayed against human ALK5 (Homo sapiens (Human), UniProt P36897) (assay: ADP-GLO Kinases assay, inhibitory activity on ALK5). Conditions: not given.
Type: biochemical
Procedure: The enzymatic activity of compounds of the present invention was monitored measuring the formation of ADP using the ADP-GLO Kinases assay. Following the incubation of the purified enzyme, a substrate and ATP, the produced ADP was converted into ATP, which in turn was converted into light by Ultra-Glo Luciferase. The luminescent signal positively correlated with ADP amount and kinase activity. […] The assay was performed in 384-well format and was validated using a selection of reference compounds that was tested in 11 point concentration-response curve.

Sequence of human ALK5 (P36897 80-503 limits assumed): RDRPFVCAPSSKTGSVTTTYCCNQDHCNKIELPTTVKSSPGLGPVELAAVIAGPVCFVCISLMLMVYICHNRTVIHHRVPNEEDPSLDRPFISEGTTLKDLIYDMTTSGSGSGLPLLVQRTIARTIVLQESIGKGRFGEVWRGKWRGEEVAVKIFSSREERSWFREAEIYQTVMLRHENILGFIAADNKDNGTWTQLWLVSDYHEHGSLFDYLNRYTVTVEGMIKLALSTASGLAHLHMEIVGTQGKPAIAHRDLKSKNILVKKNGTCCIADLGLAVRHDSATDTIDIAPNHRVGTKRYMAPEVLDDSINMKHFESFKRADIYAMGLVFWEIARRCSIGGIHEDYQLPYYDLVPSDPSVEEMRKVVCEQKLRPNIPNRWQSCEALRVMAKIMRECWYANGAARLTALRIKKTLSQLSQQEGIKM

Compound | IC50
Cc1nnc(-c2cc(Cl)ccc2F)cc1Nc1ccnc2cc(OC(=O)N3C[C@H]4C[C@@H]3CN4C)ccc12 [Example 159, 4-{[6-(5-chloro-2-fluorophenyl)-3-methylpyridazin-4-yl]amino}quinolin-7-yl (1R,4R)-5-methyl-2,5-diazabicyclo[2.2.1]heptane-2-carboxylate] | < 1 nM

Same assay, conditions: purified recombinant human ALK5 2.6 nM, TGFβ1 peptide substrate, 25° C, 150 min incubation, ADP-Glo detection; read-out: ALK5 IC50

Compound | IC50
COC(=O)c1cccc(-c2cc(Nc3ccnc(N)c3)cnn2)c1F [Example C3, reference compound] | 10000 nM
COC(=O)NCCN1CCN(CCOc2ccc3c(Nc4cnnc(-c5cc(Cl)ccc5F)c4)ccnc3c2)CC1 [Example 77, Methyl N-[2-(4-{2-[(4-{[6-(5-Chloro-2-Fluorophenyl)Pyridazin-4-Yl]Amino}Quinolin-7-Yl)Oxy]Ethyl}Piperazin-1-Yl)Ethyl]Carbamate] | < 1 nM
CN1CCN(CCOc2ccc3c(Nc4cc(-c5cc(Cl)ccc5F)nnc4C(F)(F)F)ccnc3c2)CC1 [Example 183, N-[6-(5-Chloro-2-Fluorophenyl)-3-(Trifluoromethyl)Pyridazin-4-Yl]-7-[2-(4-Methylpiperazin-1-Yl)Ethoxy]Quinolin-4-Amine] | < 1 nM
CN1CCN(CCNC(=O)c2c[nH]c3nccc(Nc4cnnc(-c5cc(Cl)ccc5F)c4)c23)CC1 [Example 21, 4-{[6-(5-Chloro-2-Fluorophenyl)Pyridazin-4-Yl]Amino}-N-[2-(4-Methylpiperazin-1-Yl)Ethyl]-1H-Pyrrolo[2,3-13]Pyridine-3-Carboxamide] | 1 to 5 nM
CN1CCC(COc2ccc3c(Nc4cnnc(-c5cc(Cl)ccc5F)c4)ccnc3c2)CC1 [Example 89, N-[6-(5-Chloro-2-Fluorophenyl)Pyridazin-4-Yl]-7-[(1-Methylpiperidin-4-Yl)Methoxy]Quinolin-4-Amine] | < 1 nM
CN1CCC(CCN2CCN(C(=O)Oc3ccc4c(Nc5cnnc(-c6cc(Cl)ccc6F)c5)ccnc4c3)CC2)CC1 [Example 64, 4-{[6-(5-Chloro-2-Fluorophenyl)Pyridazin-4-Yl]Amino}Quinolin-7-Yl 4-[2-(1-Methylpiperidin-4-Yl)Ethyl]Piperazine-1-Carboxylate] | < 1 nM

Further lines, results first:

IC50 | Compound
< 1 nM | Cc1nnc(-c2cc(Cl)c(F)cc2F)cc1Nc1ccnc(NC(=O)CCN2CCN(C)CC2)c1 [Example 151, N-(4-{[6-(5-chloro-2,4-difluorophenyl)-3-methylpyridazin-4-yl]amino}pyridin-2-yl)-3-(4-methylpiperazin-1-yl)propanamide]
< 1 nM | Fc1ccc(Cl)cc1-c1cc(Nc2ccnc3cc(OCCN4CCOCC4)ccc23)cnn1 [Example 3, N-[6-(5-Chloro-2-Fluorophenyl)Pyridazin-4-Yl]-7-[2-(Morpholin-4-Yl)Ethoxy]Quinolin-4-Amine]
< 1 nM | COC(=O)N(C)CCN1CCN(CCC(=O)Nc2cc(Nc3cc(-c4cc(Cl)ccc4F)nnc3C)ccn2)CC1 [Example 105, methyl N-[2-(4-{2-[(4-{[6-(5-chloro-2-fluorophenyl)-3-methylpyridazin-4-yl]amino}pyridin-2-yl)carbamoyl]ethyl}piperazin-1-yl)ethyl]-N-methylcarbamate]
< 1 nM | Cc1nnc(-c2cc(Cl)ccc2F)cc1Nc1ccnc(NC(=O)CCN2CCN(CCO)CC2)c1 [Example 80, N-(4-{[6-(5-Chloro-2-Fluorophenyl)-3-Methylpyridazin-4-Yl]Amino}Pyridin-2-Yl)-3-[4-(2-Hydroxyethyl)Piperazin-1-Yl]Propanamide]
< 1 nM | CC(=O)N1CCCN(CCOc2ccc3c(Nc4cnnc(-c5cc(Cl)ccc5F)c4)ccnc3c2)C1 [Example 56, 1-(3-{2-[(4-{[6-(5-Chloro-2-Fluorophenyl)Pyridazin-4-Yl]Amino}Quinolin-7-Yl)Oxy]Ethyl}-1,3-Diazinan-1-Yl)Ethan-1-One]
< 1 nM | Fc1ccc(Cl)cc1-c1cc(Nc2ccnc3cc(OCCN4CCN(CC(F)(F)F)CC4)ccc23)cnn1 [Example 41, N-[6-(5-Chloro-2-Fluorophenyl)Pyridazin-4-Yl]-7-{2-[4-(2,2,2-Trifluoroethyl)Piperazin-1-Yl]Ethoxy}Quinolin-4-Amine]
